This note sets out measurements from patent US10004701B2, “Methods and compositions for treating infection” (UNIVERSITY OF ROCHESTER, priority 2012, dated 2018).

Assay in all cases: AK assay 384-well format, Prestwick library screening
One test has as its system E. faecium. It counts as cell-based, Enterococcus faecium. As to conditions: 50 μM final drug concentration; for fold induction at 50 µM: Enterococcus faecium, 3 h.
Test [1] concerns S. aureus strain USA300-0114. It counts as cell-based, Staphylococcus aureus. As to conditions: 50 μM final drug concentration; for fold induction at 50 µM: Staphylococcus aureus, USA300, 3 h.
The subject of the next test is K. pneumoniae. It counts as cell-based, Klebsiella pneumoniae. As to conditions: 50 μM final drug concentration; for fold induction at 50 µM: Klebsiella pneumoniae, 3 h.
The subject of test [2] is A. baumannii strain 98-37-09. It counts as cell-based, Acinetobacter baumannii. As to conditions: 50 μM final drug concentration; for fold induction at 50 µM: Acinetobacter baumannii, 983709, 3 h.
Another test deals with P. aeruginosa. It is filed as cell-based, Pseudomonas aeruginosa. As to conditions: 50 μM final drug concentration; for fold induction at 50 µM: Pseudomonas aeruginosa, 3 h.
A further test relates to E. cloacae. It is filed as cell-based, Enterobacter cloacae. As to conditions: 50 μM final drug concentration; for fold induction at 50 µM: Enterobacter cloacae, 3 h.
The test system of a further test is E. coli. It counts as cell-based, Escherichia coli. As to conditions: 50 μM final drug concentration; for fold induction at 50 µM: Escherichia coli, 3 h.
Where [3] appears, read: planktonic E. faecium, 384-well, cutoff for positive-scoring molecules 3-fold increase, read-out: AK-based Prestwick Library Screening Results: E. faecium (increase in extracellular AK activity).
The mark [4] stands for this setting: planktonic S. aureus, 384-well, cutoff for positive-scoring molecules 3-fold increase, read-out: AK-based Prestwick Library Screening Results: S. aureus (increase in extracellular AK activity).
Where [5] appears, read: planktonic K. pneumoniae, 384-well, cutoff for positive-scoring molecules 3-fold increase, read-out: AK-based Prestwick Library Screening Results: K. pneumoniae (increase in extracellular AK activity).
The mark [6] stands for this setting: planktonic A. baumannii, 384-well, cutoff for positive-scoring molecules 3-fold increase, read-out: AK-based Prestwick Library Screening Results: A. baumannii (increase in extracellular AK activity).
Setting [7] is: planktonic P. aeruginosa, 384-well, cutoff for positive-scoring molecules 3-fold increase, read-out: AK-based Prestwick Library Screening Results: P. aeruginosa (increase in extracellular AK activity).
[8] abbreviates: planktonic E. cloacae, 384-well, cutoff for positive-scoring molecules 3-fold increase, read-out: AK-based Prestwick Library Screening Results: E. cloacae (increase in extracellular AK activity).
[9] abbreviates: planktonic E. coli, 384-well, cutoff for positive-scoring molecules 3-fold increase, read-out: AK-based Prestwick Library Screening Results: E. coli (increase in extracellular AK activity).
Where [10] appears, read: planktonic E. faecium, positive cutoff 3-fold increase, read-out: AK-based Prestwick library screening result, E. faecium (fold increase in extracellular AK activity).
Setting [11] is: planktonic S. aureus, positive cutoff 3-fold increase, read-out: AK-based Prestwick library screening result, S. aureus (fold increase in extracellular AK activity).
[12] abbreviates: planktonic K. pneumoniae, positive cutoff 3-fold increase, read-out: AK-based Prestwick library screening result, K. pneumoniae (fold increase in extracellular AK activity).
[13] abbreviates: planktonic A. baumannii, positive cutoff 3-fold increase, read-out: AK-based Prestwick library screening result, A. baumannii (fold increase in extracellular AK activity).
Setting [14] is: planktonic P. aeruginosa, positive cutoff 3-fold increase, read-out: AK-based Prestwick library screening result, P. aeruginosa (fold increase in extracellular AK activity).
[15] abbreviates: planktonic E. cloacae, positive cutoff 3-fold increase, read-out: AK-based Prestwick library screening result, E. cloacae (fold increase in extracellular AK activity).
Where [16] appears, read: planktonic E. coli, positive cutoff 3-fold increase, read-out: AK-based Prestwick library screening result, E. coli (fold increase in extracellular AK activity).
[17] abbreviates: cutoff for positive-scoring molecules 3-fold increase.

Counter-ions that a name gives are not always drawn. Like-named read-outs stand apart in the source and are kept apart here.

Regarding `CCC1(c2cccc(O)c2)CCCCN(C)C1` (centres unmarked) [Meptazinol hydrochloride], the fold induction at 50 µM was determined as 1.1 in the test with E. faecium (planktonic E. faecium, […], read-out: AK-based Prestwick library screening result, E. faecium (fold increase in extracellular AK activity)); 0.9 in test [1] (planktonic S. aureus, […], read-out: AK-based Prestwick library screening result, S. aureus (fold increase in extracellular AK activity)); 0.9 in the test on K. pneumoniae (planktonic K. pneumoniae, […], read-out: AK-based Prestwick library screening result, K. pneumoniae (fold increase in extracellular AK activity)); 1.1 in test [2] (planktonic A. baumannii, […], read-out: AK-based Prestwick library screening result, A. baumannii (fold increase in extracellular AK activity)); 1.1 with P. aeruginosa (planktonic P. aeruginosa, […], read-out: AK-based Prestwick library screening result, P. aeruginosa (fold increase in extracellular AK activity)); 1.4 with E. cloacae (planktonic E. cloacae, […], read-out: AK-based Prestwick library screening result, E. cloacae (fold increase in extracellular AK activity)). The fold induction at 50 µM in the test with E. coli (planktonic E. coli, […], read-out: AK-based Prestwick library screening result, E. coli (fold increase in extracellular AK activity)) turned out to be 1.3.
On to `CC(C)NCC(O)COc1cccc2ccccc12` (centres unmarked) [Propranolol hydrochloride], for which the fold induction at 50 µM with E. faecium (cutoff for positive-scoring molecules 3-fold increase, read-out: AK-based Prestwick Library Screening Results, E. faecium (fold increase in extracellular AK activity)) was determined as 1.1; in test [1] (cutoff for positive-scoring molecules 3-fold increase, read-out: AK-based Prestwick Library Screening Results, S. aureus (fold increase in extracellular AK activity)), 1.4; with K. pneumoniae (cutoff for positive-scoring molecules 3-fold increase, read-out: AK-based Prestwick Library Screening Results, K. pneumoniae (fold increase in extracellular AK activity)) it was 1.1; in test [2] (cutoff for positive-scoring molecules 3-fold increase, read-out: AK-based Prestwick Library Screening Results, A. baumannii (fold increase in extracellular AK activity)), 1.2; in the test with P. aeruginosa (cutoff for positive-scoring molecules 3-fold increase, read-out: AK-based Prestwick Library Screening Results, P. aeruginosa (fold increase in extracellular AK activity)), 1.2; in the test on E. cloacae (cutoff for positive-scoring molecules 3-fold increase, read-out: AK-based Prestwick Library Screening Results, E. cloacae (fold increase in extracellular AK activity)) it was 1.4. Moreover, the fold induction at 50 µM with E. coli (cutoff for positive-scoring molecules 3-fold increase, read-out: AK-based Prestwick Library Screening Results, E. coli (fold increase in extracellular AK activity)) stood at 1.2.
In the case of `CCCCOc1cc(C(=O)NCCN(CC)CC)c2ccccc2n1` [Dibucaine], the fold induction at 50 µM came to 0.9 in the test on E. faecium (setting [3]); 1.3 in test [1] (setting [4]); 1.1 in the test on K. pneumoniae (setting [5]); 1.3 in test [2] (setting [6]); 1.1 in the test on P. aeruginosa (setting [7]); 1.7 with E. cloacae (setting [8]). For the same molecule, the fold induction at 50 µM in the test on E. coli (setting [9]) turned out to be 1.3.
For the molecule `OCCN1CCN(CCCN2c3ccccc3Sc3ccc(C(F)(F)F)cc32)CC1` [Fluphenazine dihydrochloride], the fold induction at 50 µM with E. faecium (setting [3]) turned out to be 1.1; in test [1] (setting [4]), 1; in the test on K. pneumoniae (setting [5]), 1.5; in test [2] (setting [6]), 1.6; with P. aeruginosa (setting [7]) it was 1.1; in the test on E. cloacae (setting [8]), 1.6. Moreover, in the test on E. coli (setting [9]), the fold induction at 50 µM was determined as 1.3.
Consider `N=C(N)c1ccc(OCCCCCOc2ccc(C(=N)N)cc2)cc1` [Pentamidine isethionate], for which the fold induction at 50 µM amounted to 1.4 with E. faecium (planktonic, cutoff for positive 3-fold increase, read-out: AK-based Prestwick Library Screening Results, E. faecium (fold increase in extracellular AK activity)); 1.9 in test [1] (planktonic, cutoff for positive 3-fold increase, read-out: AK-based Prestwick Library Screening Results, S. aureus (fold increase in extracellular AK activity)); 1.2 in the test with K. pneumoniae (planktonic, cutoff for positive 3-fold increase, read-out: AK-based Prestwick Library Screening Results, K. pneumoniae (fold increase in extracellular AK activity)); 1.2 in test [2] (planktonic, cutoff for positive 3-fold increase, read-out: AK-based Prestwick Library Screening Results, A. baumannii (fold increase in extracellular AK activity)); 1.2 in the test on P. aeruginosa (planktonic, cutoff for positive 3-fold increase, read-out: AK-based Prestwick Library Screening Results, P. aeruginosa (fold increase in extracellular AK activity)); 1.4 with E. cloacae (planktonic, cutoff for positive 3-fold increase, read-out: AK-based Prestwick Library Screening Results, E. cloacae (fold increase in extracellular AK activity)). Besides, the fold induction at 50 µM in the test with E. coli (planktonic, cutoff for positive 3-fold increase, read-out: AK-based Prestwick Library Screening Results, E. coli (fold increase in extracellular AK activity)) came to 1.4.
`CCOC(=O)[C@H](CCc1ccccc1)N[C@@H](C)C(=O)N1[C@H](C(=O)O)C[C@@H]2CCC[C@@H]21` [Ramipril]: the fold induction at 50 µM stood at 1 in the test on E. faecium (setting [10]); 1.2 in test [1] (setting [11]); 1 in the test on K. pneumoniae (setting [12]); 1.3 in test [2] (setting [13]); 1.2 in the test with P. aeruginosa (setting [14]); 1.1 in the test on E. cloacae (setting [15]). Also, the fold induction at 50 µM with E. coli (setting [16]) was determined as 1.1.
For `Nc1ncn([C@@H]2O[C@H](CO)[C@@H](O)[C@H]2O)c(=O)n1` [Azacytidine-5], the “AK-based Prestwick Library Screening Results, E. faecium (fold increase in extracellular AK activity)” value in the test with E. faecium (setting [17]) was found to be 1.0. Further, the “AK-based Prestwick Library Screening Results, S. aureus (fold increase in extracellular AK activity)” value in test [1] (setting [17]) was determined as 1.2. In the test with K. pneumoniae (setting [17]), the “AK-based Prestwick Library Screening Results, K. pneumoniae (fold increase in extracellular AK activity)” value was 0.9. Also, the “AK-based Prestwick Library Screening Results, A. baumannii (fold increase in extracellular AK activity)” value in test [2] (setting [17]) was 1.4. Further, the “AK-based Prestwick Library Screening Results, P. aeruginosa (fold increase in extracellular AK activity)” value with P. aeruginosa (setting [17]) worked out at 1.2. The “AK-based Prestwick Library Screening Results, E. cloacae (fold increase in extracellular AK activity)” value in the test on E. cloacae (setting [17]) is on record as 1.5. Further, the “AK-based Prestwick Library Screening Results, E. coli (fold increase in extracellular AK activity)” value with E. coli (setting [17]) is given as 2.2.
For `CC1CS(=O)(=O)CCN1/N=C/c1ccc([N+](=O)[O-])o1` (centres unmarked) [Nifurtimox], the fold induction at 50 µM with E. faecium (setting [10]) came out at 1; in test [1] (setting [11]), 0.8; in the test with K. pneumoniae (setting [12]), 1.2; in test [2] (setting [13]) it was 1.5; in the test with P. aeruginosa (setting [14]) it was 1.1; in the test on E. cloacae (setting [15]), 1.3. The fold induction at 50 µM in the test on E. coli (setting [16]) stood at 1.1.
